Measurements published in US7115608B2, “Pyridinone and pyridinethione derivatives having HIV inhibiting properties” (Centre National de la Recherche Schentifique, priority 2000, dated 2006).

Experiments:
[1] = system: mock-infected MT-4 cells; test: Cytotoxicity in mock-infected MT-4 cells (MTT); format: cell-based; conditions: concentration reducing absorbance of mock-infected MT-4 control by 50%
[2] = system: HIV-1; conditions: for IC50: dose achieving 50% protection of HIV-infected MT-4 cells, MTT, OD 540 nm; for SI: selectivity index, ratio of CC50 to IC50
Method: A rapid, sensitive and automated assay procedure was used for the in vitro evaluation of anti-HIV agents. […] Inhibition of the HIV-induced cytopathic effect was used as the end point. The viability of both HIV- and mock-infected cells was assessed spectrophotometrically via the in situ reduction of 3-(4,5-dimethylthiazol-2-yl)-2,5-diphenyltetrazolium bromide (MTT). […] The percent protection achieved by the compound in HIV-infected cells was calculated by the following formula:
[formula] expressed in %, whereby (ODT)HIV is the optical density measured with a given concentration of the test compound in HIV-infected cells; (ODC)HIV is the optical density measured for the control untreated HIV-infected cells; (ODC)MOCK is the optical density measured for the control untreated mock-infected cells; all optical density values were determined at 540 nm. […] The ratio of CC50 to IC50 was defined as the selectivity index (SI).

In the case of `CCc1c(C)[nH]c(=O)c(Br)c1Sc1cc(C)cc(C)c1` [compound 109], the CC50 [1] is reported as 32000 nM, the IC50 [2] is reported as 2.5 nM and the SI [2] is reported as 12589.

Compound `C=Cc1cccc(Oc2c(CC)c(C)[nH]c(=O)c2I)c1` [compound 296] has a CC50 [1] of 25000 nM, an IC50 [2] of 2 nM and an SI [2] of 12589.

In the case of `CCc1c(C)[nH]c(=O)c(Br)c1Oc1cc(C)cc(C)c1` [compound 284], the CC50 [1] is reported as > 10000 nM, the IC50 [2] is reported as 2 nM and the SI [2] is reported as >5012.

With `Cc1cc(C)cc(Oc2c(CCCO)c(C)[nH]c(=O)c2I)c1` [compound 242] the CC50 [1] was > 100000 nM, the IC50 [2] was 0.6 nM and the SI [2] was >158489.

In the case of `CCc1c(C)[nH]c(=O)c(I)c1Oc1cccc(C=O)c1` [compound 321], the CC50 [1] is reported as > 100000 nM, the IC50 [2] is reported as 6.3 nM and the SI [2] is reported as >15849.

`CCc1c(C)[nH]c(=O)c(I)c1Oc1cc(C)cc(/C=C/C#N)c1` [compound 83] was tested, and the CC50 [1] was 8000 nM, the IC50 [2] was 2.5 nM and the SI [2] was 3162.

`CCc1c(C)[nH]c(=O)c(I)c1Oc1cc(C)cc(/C=C/C#N)c1` [compound 551] showed a CC50 [1] of 13000 nM, an IC50 [2] of 1 nM and an SI [2] of 12589.

`CCOC(=O)c1c(Oc2cc(C)cc(C)c2)c(CC)c(C)[nH]c1=O` [compound 324] showed a CC50 [1] of 32000 nM, an IC50 [2] of 5 nM and an SI [2] of 6310.

`Cc1cc(C)cc(Oc2c(CN3CCN(C(=O)c4ccco4)CC3)c(C)[nH]c(=O)c2I)c1` [compound 700] was tested, and the CC50 [1] was > 8000 nM, the IC50 [2] was 7.9 nM and the SI [2] was >1000.

In the case of `CCc1c(COC(N)=O)[nH]c(=O)c(I)c1Oc1cc(C)cc(C)c1` [compound 105], the CC50 [1] is reported as > 10000 nM, the IC50 [2] is reported as 2 nM and the SI [2] is reported as >5012.

Compound `Cc1cc(C)cc(Sc2c(Cn3cccc3)c(C)[nH]c(=O)c2I)c1` [compound 618] has a CC50 [1] of 50000 nM, an IC50 [2] of 2 nM and an SI [2] of 25119.

With `CCSCc1c(C)[nH]c(=O)c(I)c1Oc1cc(C)cc(C)c1` [compound 124] the CC50 [1] was > 10000 nM, the IC50 [2] was 1.3 nM and the SI [2] was >7943.

`Cc1cc(C)cc(Sc2c(CSCc3cccs3)c(C)[nH]c(=O)c2I)c1` [compound 8] was tested, and the CC50 [1] was > 100000 nM, the IC50 [2] was 10 nM and the SI [2] was >10000.

For `CON=Cc1c(C)[nH]c(=O)c(I)c1Oc1cc(C)cc(C)c1` [compound 232], the CC50 [1] was > 32000 nM, the IC50 [2] was 6.3 nM and the SI [2] was >5012.

With `CCc1c[nH]c(=O)c(I)c1Oc1cccc(C)c1` [compound 314] the CC50 [1] was > 32000 nM, the IC50 [2] was 7.9 nM and the SI [2] was >3981.

In the case of `Cc1cc(C)cc(Oc2c(CSCc3ccco3)c(C)[nH]c(=O)c2I)c1` [compound 375], the CC50 [1] is reported as > 100000 nM, the IC50 [2] is reported as 1.3 nM and the SI [2] is reported as >79433.

`Cc1cc(C)cc(Oc2c(COCCO)c(C)[nH]c(=O)c2I)c1` [compound 254] was tested, and the CC50 [1] was > 32000 nM, the IC50 [2] was 2 nM and the SI [2] was >15849.

In the case of `Cc1cc(C)cc(Oc2c(C=CC#N)c(C)[nH]c(=O)c2I)c1` [compound 140], the CC50 [1] is reported as > 10000 nM, the IC50 [2] is reported as 6.3 nM and the SI [2] is reported as >1585.

In the case of `CCc1c(C)[nH]c(=O)c(I)c1Oc1cccc(C)c1` [compound 306], the CC50 [1] is reported as > 32000 nM, the IC50 [2] is reported as 1.6 nM and the SI [2] is reported as >19953.

With `CCc1c(C)[nH]c(=O)c(C2CC2)c1Oc1cc(C)cc(C)c1` [compound 230] the CC50 [1] was 8000 nM, the IC50 [2] was 6.3 nM and the SI [2] was 1259.

For `Cc1cc(C)cc(Oc2c(CNC=O)c(C)[nH]c(=O)c2I)c1` [compound 219], the CC50 [1] was > 32000 nM, the IC50 [2] was 10 nM and the SI [2] was >3162.

In the case of `Cc1cccc(Sc2c3c([nH]c(=O)c2I)CCCCC3)c1` [compound 221], the CC50 [1] is reported as > 20000 nM, the IC50 [2] is reported as 6.3 nM and the SI [2] is reported as >3162.

Compound `CCc1c(C)[nH]c(=O)c(I)c1Sc1cc(Cl)cc(Cl)c1` [compound 115] has a CC50 [1] of 8000 nM, an IC50 [2] of 2.5 nM and an SI [2] of 3162.

In the case of `CCOC(=O)NCc1c(C)[nH]c(=O)c(I)c1Oc1cc(C)cc(C)c1` [compound 218], the CC50 [1] is reported as > 10000 nM, the IC50 [2] is reported as 7.9 nM and the SI [2] is reported as >1259.

For `CCc1c(C)[nH]c(=O)c(I)c1Oc1cccc(/C=C/C=C/C#N)c1` [compound 299], the IC50 [2] was 2.5 nM and the SI [2] was 32.
